Reference: patent US20060235076A1, “Medicinal composition for treating infection with drug-resistant staphylococcus aureus” (priority 2003, published 2006)
Values after ≈ are worked out from the molar mass of the structure shown. Where two headings read alike, the source gives them in different places.

Experiments:
[1] = system: MRSA and MSSA; experiment: Antibacterial activity of gallic acid, various gallates and multivalent phenol derivatives alone (agar plate dilution method, MIC); assay type: cell-based, Staphylococcus aureus; settings: Staphylococcus aureus; for MIC: read-out: MIC alone
Outline: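 Agar plate dilution MIC per Japan Society of Chemotherapy, on Mueller-Hinton II agar supplemented with 50 mg/l Ca-ion, 25 mg/l Mg-ion and 2% NaCl. Inoculum grown overnight at 37 °C and diluted in saline to 10^6 CFU/ml. Compounds tested alone.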

[2] = system: MRSA COL and MRSA Strain No. 5; experiment: Potentiating effect of various gallates for antibacterial activity of oxacillin (MIC by broth microdilution method and FIC); assay type: cell-based, Staphylococcus aureus; settings: for antibacterial activity when used alone: COL Strain and Strain No. 5; for FIC value: combination with oxacillin
Procedure: According to the broth microdilution method defined by Japan Society of Chemotherapy, MIC was determined. CAMHA was prepared by adding 50 mg/l of Ca-ion, 25 mg/l of Mg-ion, and 2% of NaCl to MHB (Mueller-Hinton Broth), and it was used as a medium for use in the measurement of sensitivity. In 96-well microplates 100 μl of the medium for use in the measurement of sensitivity containing drugs was dispensed. The bacterial liquid was incubated at 37° C. overnight, diluted with saline and added to the plate so that the final concentration of the bacteria was 5×10^5 CFU/well. […] FIC (fractional inhibitory concentration) was calculated from the result and the potency of the effect of the combination use was evaluated.

**Q.** `CCCCCCCCCCOC(=O)c1cc(O)c(O)c(O)c1` [Decyl gallate, n-decyl gallate] was tested. Which MIC50 [1] did it give?
**A.** 15.7 mg/L (≈ 50.6 µM)

**Q.** What about the MIC ([1]; ATCC 6538 / MRSA / MSSA) of the same compound?
**A.** 15.7 mg/L (≈ 50.6 µM)

**Q.** What about the MIC ([1]; COL) of the same compound?
**A.** 15.7 mg/L (≈ 50.6 µM)

**Q.** And the MIC ([1]; MRSA #1)?
**A.** 15.7 mg/L (≈ 50.6 µM)

**Q.** What about the MIC ([1]; MRSA #2) of the same compound?
**A.** 15.7 mg/L (≈ 50.6 µM)

**Q.** And the MIC ([1]; MRSA #3)?
**A.** 15.7 mg/L (≈ 50.6 µM)

**Q.** And the MIC ([1]; MRSA #4)?
**A.** 15.7 mg/L (≈ 50.6 µM)

**Q.** And the MIC ([1]; MRSA #5)?
**A.** 15.7 mg/L (≈ 50.6 µM)

**Q.** What about the MIC ([1]; MRSA #6) of the same compound?
**A.** 15.7 mg/L (≈ 50.6 µM)

**Q.** What about the MIC ([1]; MRSA #7) of the same compound?
**A.** 15.7 mg/L (≈ 50.6 µM)

**Q.** What about the MIC ([1]; MRSA #8) of the same compound?
**A.** 15.7 mg/L (≈ 50.6 µM)

**Q.** And the MIC ([1]; MRSA #9)?
**A.** 15.7 mg/L (≈ 50.6 µM)

**Q.** And the MIC ([1]; MRSA #10)?
**A.** 15.7 mg/L (≈ 50.6 µM)

**Q.** And the MIC ([1]; MRSA #12)?
**A.** 15.7 mg/L (≈ 50.6 µM)

**Q.** What about the MIC ([1]; MRSA #16) of the same compound?
**A.** 15.7 mg/L (≈ 50.6 µM)

**Q.** What about the MIC ([1]; MRSA #17) of the same compound?
**A.** 15.7 mg/L (≈ 50.6 µM)

**Q.** What about the MIC ([1]; MRSA #18) of the same compound?
**A.** 15.7 mg/L (≈ 50.6 µM)

**Q.** And the MIC ([1]; MRSA #20)?
**A.** 15.7 mg/L (≈ 50.6 µM)

**Q.** And the MIC ([1]; MRSA #21)?
**A.** 31.3 mg/L (≈ 101 µM)

**Q.** And the MIC ([1]; MRSA #22)?
**A.** 31.3 mg/L (≈ 101 µM)

**Q.** And the MIC ([1]; MRSA #24)?
**A.** 31.3 mg/L (≈ 101 µM)

**Q.** And the MIC ([1]; MRSA and MSSR)?
**A.** 15.7 mg/L (≈ 50.6 µM)

**Q.** What about the MIC ([1]; MSSA #1003) of the same compound?
**A.** 15.7 mg/L (≈ 50.6 µM)

**Q.** And the MIC ([1]; MSSA #1010)?
**A.** 15.7 mg/L (≈ 50.6 µM)

**Q.** And the MIC ([1]; MSSA #1020)?
**A.** 15.7 mg/L (≈ 50.6 µM)

**Q.** And the MIC ([1]; MSSA #1023)?
**A.** 15.7 mg/L (≈ 50.6 µM)

**Q.** And the MIC ([1]; MSSA #1029)?
**A.** 15.7 mg/L (≈ 50.6 µM)

**Q.** What about the MIC ([1]; MSSA #1032) of the same compound?
**A.** 15.7 mg/L (≈ 50.6 µM)

**Q.** What about the “antibacterial activity when used alone” value [2] of the same compound?
**A.** most potent

**Q.** And the FIC value ([2]; MRSA COL)?
**A.** 0.258

**Q.** What about the FIC value ([2]; MRSA Strain No. 5) of the same compound?
**A.** 0.508

**Q.** Which results are given for `CCCCCCOC(=O)c1cc(O)c(O)c(O)c1` [Hexyl gallate, n-hexyl gallate]?
**A.** MIC50 [1]: 62.5 mg/L (≈ 246 µM); MIC ([1]; ATCC 6538 / MRSA / MSSA, ATCC6538): 31.3 mg/L (≈ 123 µM); MIC ([1]; COL): 31.3 mg/L (≈ 123 µM); MIC ([1]; MRSA #1): 62.5 mg/L (≈ 246 µM); MIC ([1]; MRSA #2): 31.3 mg/L (≈ 123 µM); MIC ([1]; MRSA #3): 31.3 mg/L (≈ 123 µM); MIC ([1]; MRSA #4): 31.3 mg/L (≈ 123 µM); MIC ([1]; MRSA #5): 31.3 mg/L (≈ 123 µM); MIC ([1]; MRSA #6): 31.3 mg/L (≈ 123 µM); MIC ([1]; MRSA #7): 31.3 mg/L (≈ 123 µM); MIC ([1]; MRSA #8): 31.3 mg/L (≈ 123 µM); MIC ([1]; MRSA #9): 31.3 mg/L (≈ 123 µM); MIC ([1]; MRSA #10): 31.3 mg/L (≈ 123 µM); MIC ([1]; MRSA #12): 62.5 mg/L (≈ 246 µM); MIC ([1]; MRSA #16): 62.5 mg/L (≈ 246 µM); MIC ([1]; MRSA #17): 62.5 mg/L (≈ 246 µM); MIC ([1]; MRSA #18): 62.5 mg/L (≈ 246 µM); MIC ([1]; MRSA #20): 62.5 mg/L (≈ 246 µM); MIC ([1]; MRSA #21): 62.5 mg/L (≈ 246 µM); MIC ([1]; MRSA #22): 62.5 mg/L (≈ 246 µM); MIC ([1]; MRSA #24): 62.5 mg/L (≈ 246 µM); MIC ([1]; MSSA #1003): 62.5 mg/L (≈ 246 µM); MIC ([1]; MSSA #1010): 62.5 mg/L (≈ 246 µM); MIC ([1]; MSSA #1020): 62.5 mg/L (≈ 246 µM); MIC ([1]; MSSA #1023): 62.5 mg/L (≈ 246 µM); MIC ([1]; MSSA #1029): 62.5 mg/L (≈ 246 µM); MIC ([1]; MSSA #1032): 62.5 mg/L (≈ 246 µM); FIC value ([2]; MRSA COL): 0.5; FIC value ([2]; MRSA Strain No. 5): 0.502

**Q.** Which results are given for `CCCCCCCCCOC(=O)c1cc(O)c(O)c(O)c1` [Nonyl gallate, n-nonyl gallate]?
**A.** MIC50 [1]: 15.7 mg/L (≈ 53 µM); MIC ([1]; ATCC 6538 / MRSA / MSSA): 15.7 mg/L (≈ 53 µM); MIC ([1]; COL): 15.7 mg/L (≈ 53 µM); MIC ([1]; MRSA #1): 15.7 mg/L (≈ 53 µM); MIC ([1]; MRSA #2): 15.7 mg/L (≈ 53 µM); MIC ([1]; MRSA #3): 15.7 mg/L (≈ 53 µM); MIC ([1]; MRSA #4): 15.7 mg/L (≈ 53 µM); MIC ([1]; MRSA #5): 15.7 mg/L (≈ 53 µM); MIC ([1]; MRSA #6): 15.7 mg/L (≈ 53 µM); MIC ([1]; MRSA #7): 15.7 mg/L (≈ 53 µM); MIC ([1]; MRSA #8): 15.7 mg/L (≈ 53 µM); MIC ([1]; MRSA #9): 15.7 mg/L (≈ 53 µM); MIC ([1]; MRSA #10): 15.7 mg/L (≈ 53 µM); MIC ([1]; MRSA #12): 15.7 mg/L (≈ 53 µM); MIC ([1]; MRSA #16): 15.7 mg/L (≈ 53 µM); MIC ([1]; MRSA #17): 15.7 mg/L (≈ 53 µM); MIC ([1]; MRSA #18): 15.7 mg/L (≈ 53 µM); MIC ([1]; MRSA #20): 15.7 mg/L (≈ 53 µM); MIC ([1]; MRSA #21): 15.7 mg/L (≈ 53 µM); MIC ([1]; MRSA #22): 15.7 mg/L (≈ 53 µM); MIC ([1]; MRSA #24): 15.7 mg/L (≈ 53 µM); MIC ([1]; MRSA and MSSR): 15.7 mg/L (≈ 53 µM); MIC ([1]; MSSA #1003): 15.7 mg/L (≈ 53 µM); MIC ([1]; MSSA #1010): 15.7 mg/L (≈ 53 µM); MIC ([1]; MSSA #1020): 15.7 mg/L (≈ 53 µM); MIC ([1]; MSSA #1023): 15.7 mg/L (≈ 53 µM); MIC ([1]; MSSA #1029): 15.7 mg/L (≈ 53 µM); MIC ([1]; MSSA #1032): 15.7 mg/L (≈ 53 µM); antibacterial activity when used alone [2]: most potent; FIC value ([2]; MRSA COL): 0.625; FIC value ([2]; MRSA Strain No. 5): 0.502
